Measured values taken from patent publication US6342213B1, “Methods for treating non-suturable wounds by use of cyanoacrylate adhesives” (MedLogic Global Corporation, priority 1992, dated 2002).

What was measured:
[1] = test system: human skin tissue; assay: Bonding of human skin tissue, histotoxicity/cytotoxicity
[2] = used as suture supplements or internally; site of application; cited from earlier work

SMILES: C=C(C#N)C(=O)OCCCC [n-butyl cyanoacrylate, n-butyl-2-cyanoacrylate]
- Histotoxicity or cytotoxicity on bonding human skin tissue [1]: without causing histoxicity or cytotoxicity
- Time after application at which polymeric residue was still observed by histological examination [2]: ≤ 12 months
